Patent US11077090B2, “Compounds and compositions and uses thereof” (Sunovion Pharmaceuticals Inc., priority 2016, dated 2021)

System: compound-treated mice
Experiment: Neuropharmacological assay (SmartCube): behavioral activity signature and minimal effective dose
Assay type: in vivo
Details: for minimal effective dose: Mus musculus, ip, read-out: Potency: minimal effective dose (MED); for AD: ADHD (probability of activity signature) / AG: analgesic (probability of activity signature) / AX: anxiolytic (probability of activity signature) / CE: cognitive enhancer (probability of activity signature) / DP: anti-depressant (probability of activity signature) / MS: mood stabilizer (probability of activity signature) / PS: anti-psychotic (probability of activity signature) / SD: sedative hypnotic (probability of activity signature) / UN: uncharacterized CNS activity (probability of activity signature): i.p. 15 min before test, most efficacious dose(s)
In short: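 Video-recorded behavior is compared algorithmically against a reference-compound database, yielding class probabilities (best dose reported). Compounds given i.p. in NMP/PEG/propylene glycol 15 min pre-test at 3 doses; potency as MED, the dose (mpk, range usually 0.3–30) reaching ≥50% total activity.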

[1] = MED = dose having 50% or more total activity

Compound	minimal effective dose [1]	AD: ADHD (probability of activity signature)	AG: analgesic (probability of activity signature)	AX: anxiolytic (probability of activity signature)	CE: cognitive enhancer (probability of activity signature)	DP: anti-depressant (probability of activity signature)	MS: mood stabilizer (probability of activity signature)	PS: anti-psychotic (probability of activity signature)	SD: sedative hypnotic (probability of activity signature)	UN: uncharacterized CNS activity (probability of activity signature)	Potency: minimal effective dose (MED) [1]
N[C@H]1COCc2c(Cl)cccc21 [Example 132]	< 3 mg/kg	+ (LOQ ≤ + <5%)	++ (5% ≤ ++ <25%)	+++ (25% ≤ +++ <50%)	+++ (25% ≤ +++ <50%)	++ (5% ≤ ++ <25%)	+ (LOQ ≤ + <5%)	++ (5% ≤ ++ <25%)	++ (5% ≤ ++ <25%)	+++ (25% ≤ +++ <50%)	–
Cc1ccc2c(c1C)[C@H](N)COC2 [Example 135]	< 3 mg/kg	+ (LOQ ≤ + <5%)	++ (5% ≤ ++ <25%)	+++ (25% ≤ +++ <50%)	++ (5% ≤ ++ <25%)	++ (5% ≤ ++ <25%)	+ (LOQ ≤ + <5%)	++ (5% ≤ ++ <25%)	++ (5% ≤ ++ <25%)	+++ (25% ≤ +++ <50%)	–
Cc1ccc2c(c1C)[C@@H](N)COC2 [Example 136]	3 to 10 mg/kg	+ (LOQ ≤ + <5%)	++ (5% ≤ ++ <25%)	++ (5% ≤ ++ <25%)	++ (5% ≤ ++ <25%)	++ (5% ≤ ++ <25%)	+ (LOQ ≤ + <5%)	++ (5% ≤ ++ <25%)	+ (LOQ ≤ + <5%)	+++ (25% ≤ +++ <50%)	–
CN[C@@H]1COCc2ccc(OC)cc21 [Example 139]	3 to 10 mg/kg	+ (LOQ ≤ + <5%)	++ (5% ≤ ++ <25%)	++ (5% ≤ ++ <25%)	++ (5% ≤ ++ <25%)	++ (5% ≤ ++ <25%)	+ (LOQ ≤ + <5%)	++ (5% ≤ ++ <25%)	+ (LOQ ≤ + <5%)	+++ (25% ≤ +++ <50%)	–
CN[C@H]1COCc2ccc(OC)cc21 [Example 140]	10 to 30 mg/kg	+ (LOQ ≤ + <5%)	++ (5% ≤ ++ <25%)	++ (5% ≤ ++ <25%)	++ (5% ≤ ++ <25%)	++ (5% ≤ ++ <25%)	++ (5% ≤ ++ <25%)	+++ (25% ≤ +++ <50%)	+ (LOQ ≤ + <5%)	+ (LOQ ≤ + <5%)	–
CN[C@@H]1COCc2ccc(C)cc21 [Example 141]	3 to 10 mg/kg	+ (LOQ ≤ + <5%)	++ (5% ≤ ++ <25%)	+++ (25% ≤ +++ <50%)	++ (5% ≤ ++ <25%)	++ (5% ≤ ++ <25%)	++ (5% ≤ ++ <25%)	++ (5% ≤ ++ <25%)	+ (LOQ ≤ + <5%)	+++ (25% ≤ +++ <50%)	–
CN[C@H]1COCc2ccc(C)cc21 [Example 142]	3 to 10 mg/kg	+ (LOQ ≤ + <5%)	++ (5% ≤ ++ <25%)	++ (5% ≤ ++ <25%)	++ (5% ≤ ++ <25%)	++ (5% ≤ ++ <25%)	+ (LOQ ≤ + <5%)	+ (LOQ ≤ + <5%)	+ (LOQ ≤ + <5%)	++++ (50% ≤ ++++)	–
CN[C@@H]1COCc2ccc(C)c(C)c21 [Example 143]	3 to 10 mg/kg	+ (LOQ ≤ + <5%)	+++ (25% ≤ +++ <50%)	++ (5% ≤ ++ <25%)	++ (5% ≤ ++ <25%)	++ (5% ≤ ++ <25%)	+ (LOQ ≤ + <5%)	+ (LOQ ≤ + <5%)	++ (5% ≤ ++ <25%)	++ (5% ≤ ++ <25%)	–
CN[C@H]1COCc2ccc(C)c(C)c21 [Example 144]	3 to 10 mg/kg	+ (LOQ ≤ + <5%)	++ (5% ≤ ++ <25%)	++ (5% ≤ ++ <25%)	++ (5% ≤ ++ <25%)	++ (5% ≤ ++ <25%)	+ (LOQ ≤ + <5%)	++ (5% ≤ ++ <25%)	++ (5% ≤ ++ <25%)	+++ (25% ≤ +++ <50%)	–
CN[C@@H]1COCc2cccc(Cl)c21 [Example 145]	–	+ (LOQ ≤ + <5%)	++ (5% ≤ ++ <25%)	++ (5% ≤ ++ <25%)	++ (5% ≤ ++ <25%)	+ (LOQ ≤ + <5%)	+ (LOQ ≤ + <5%)	+ (LOQ ≤ + <5%)	+ (LOQ ≤ + <5%)	+++ (25% ≤ +++ <50%)	C (>10 to ≤30 mpk)
CN[C@H]1COCc2cccc(Cl)c21 [Example 146]	3 to 10 mg/kg	+ (LOQ ≤ + <5%)	++ (5% ≤ ++ <25%)	+++ (25% ≤ +++ <50%)	++ (5% ≤ ++ <25%)	+ (LOQ ≤ + <5%)	+ (LOQ ≤ + <5%)	+ (LOQ ≤ + <5%)	+ (LOQ ≤ + <5%)	++ (5% ≤ ++ <25%)	–
CN[C@@H]1COCc2ccc(Cl)c(Cl)c21 [Example 147]	3 to 10 mg/kg	+ (LOQ ≤ + <5%)	++ (5% ≤ ++ <25%)	++ (5% ≤ ++ <25%)	+ (LOQ ≤ + <5%)	++ (5% ≤ ++ <25%)	+ (LOQ ≤ + <5%)	+ (LOQ ≤ + <5%)	+ (LOQ ≤ + <5%)	++++ (50% ≤ ++++)	–
CN[C@H]1COCc2ccc(Cl)c(Cl)c21 [Example 148]	3 to 10 mg/kg	+ (LOQ ≤ + <5%)	++ (5% ≤ ++ <25%)	++ (5% ≤ ++ <25%)	++ (5% ≤ ++ <25%)	++ (5% ≤ ++ <25%)	++ (5% ≤ ++ <25%)	++ (5% ≤ ++ <25%)	++ (5% ≤ ++ <25%)	+++ (25% ≤ +++ <50%)	–
CN[C@@H]1COCc2c(Cl)cccc21 [Example 149]	< 3 mg/kg	+ (LOQ ≤ + <5%)	++ (5% ≤ ++ <25%)	++ (5% ≤ ++ <25%)	++ (5% ≤ ++ <25%)	++ (5% ≤ ++ <25%)	+ (LOQ ≤ + <5%)	+++ (25% ≤ +++ <50%)	++ (5% ≤ ++ <25%)	+++ (25% ≤ +++ <50%)	–
Cc1ccc2c(c1)[C@H](N)[C@@H](C)OC2 [Example 155]	3 to 10 mg/kg	+ (LOQ ≤ + <5%)	++ (5% ≤ ++ <25%)	++++ (50% ≤ ++++)	++ (5% ≤ ++ <25%)	++ (5% ≤ ++ <25%)	+ (LOQ ≤ + <5%)	++ (5% ≤ ++ <25%)	++ (5% ≤ ++ <25%)	++ (5% ≤ ++ <25%)	–
